Measured values reported in patent US8530430B2, “TTK peptides and vaccines including the same” (Oncotherapy Science, Inc., priority 2009, dated 2013).

Key:
peptide-pulsed T2 cells [1] = experiment: IFN-gamma ELISPOT assay on CTLs induced with TTK peptides; assay type: cell-based, human; conditions: wells of CTLs stimulated with the peptide, against peptide-pulsed target cells compared to control wells
Description: Monocyte-derived dendritic cells (DCs) were used as antigen-presenting cells (APCs) to induce cytotoxic T lymphocyte (CTL) responses against peptides presented on human leukocyte antigen (HLA). DCs were generated in vitro as described elsewhere (Nakahara S et al., Cancer Res 2003 Jul. 15, 63(14): 4112-8). Specifically, peripheral blood mononuclear cells (PBMCs) isolated from a normal volunteer (HLA-A*0201 positive) by Ficoll-Plaque (Pharmacia) solution were separated by adherence to a plastic tissue culture dish (Becton Dickinson) so as to enrich them as the monocyte fraction. The monocyte-enriched population was cultured in the presence of 1,000 U/ml of granulocyte-macrophage colony-stimulating factor (GM-CSF) (R&D System) and 1,000 U/ml of interleukin (IL)-4 (R&D System) in AIM-V Medium (Invitrogen) containing 2% heat-inactivated autologous serum (AS). After 7 days of culture, the cytokine-induced DCs were pulsed with 20 micro-g/ml of each of the synthesized peptides in the presence of 3 micro-g/ml of beta 2-microglobulin for 3 hrs at 37 degrees C. in AIM-V Medium. The generated cells appeared to express DC-associated molecules, such as CD80, CD83, CD86 and HLA class II, on their cell surfaces (data not shown). These peptide-pulsed DCs were then inactivated by X-irradiation (20 Gy) and mixed at a 1:20 ratio with autologous CD8+ T cells, obtained by positive selection with CD8 Positive Isolation Kit (Dynal). These cultures were set up in 48-well plates (Corning); each well contained 1.5×10^4 peptide-pulsed DCs, 3×10^5 CD8+ T cells and 10 ng/ml of IL-7 (R&D System) in 0.5 ml of AIM-V/2% AS medium. Three days later, these cultures were supplemented with IL-2 (CHIRON) to a final concentration of 20 IU/ml. On days 7 and 14, the T cells were further stimulated with the autologous peptide-pulsed DCs. The DCs were prepared each time by the same way described above. CTL was tested against peptide-pulsed T2 cells after the 3rd round of peptide stimulation on day 21 (Tanaka H et al., Br J Cancer 2001 Jan. 5, 84(1): 94-9; Umano Y et al., Br J Cancer 2001 Apr. 20, 84(8): 1052-7; Uchida N et al., Clin Cancer Res 2004 Dec. 15, 10(24): 8577-86; Suda T et al., Cancer Sci 2006 May, 97(5): 411-9; Watanabe T et al., Cancer Sci 2005 August, 96(8): 498-506).
(§1) Specifically, peptide-pulsed T2 (1×10^4/well) was prepared as stimulator cells. Cultured cells in 48 wells were used as responder cells. IFN-gamma ELISPOT assay and IFN-gamma ELISA assay were performed under manufacture procedure.

peptide-pulsed T2 cells [2] = experiment: IFN-gamma ELISA assay of established CTL lines and CTL clone; assay type: cell-based, human; conditions: for IFN-gamma production of CTL lines: CTL line established with the peptide, target cells pulsed with corresponding peptide vs without peptide pulse
Method: CTLs were expanded in culture using the method similar to the one described by Riddell et al. (Walter E A et al., N Engl J Med 1995 Oct. 19, 333(16): 1038-44; Riddell S R et al., Nat Med 1996 February, 2(2): 216-23). A total of 5×10^4 CTLs were resuspended in 25 ml of AIM-V/5% AS medium with 2 kinds of human B-lymphoblastoid cell lines, inactivated by Mitomycin C, in the presence of 40 ng/ml of anti-CD3 monoclonal antibody (Pharmingen). One day after initiating the cultures, 120 IU/ml of IL-2 were added to the cultures. The cultures were fed with fresh AIM-V/5% AS medium containing 30 IU/ml of IL-2 on days 5, 8 and 11 (Tanaka H et al., Br J Cancer 2001 Jan. 5, 84(1): 94-9; Umano Y et al., Br J Cancer 2001 Apr. 20, 84(8): 1052-7; Uchida N et al., Clin Cancer Res 2004 Dec. 15, 10(24): 8577-86; Suda T et al., Cancer Sci 2006 May, 97(5): 411-9; Watanabe T et al., Cancer Sci 2005 August, 96(8): 498-506).
The dilutions were made to have 0.3, 1, and 3 CTLs/well in 96 round-bottomed micro titer plate (Nalge Nunc International). CTLs were cultured with 1×10^4 cells/well of 2 kinds of human B-lymphoblastoid cell lines, 30 ng/ml of anti-CD3 antibody, and 125 U/ml of IL-2 in a total of 150 micro-l/well of AIM-V Medium containing 5% AS. 50 micro-1/well of IL-2 were added to the medium 10 days later so to reach a final concentration of 125 U/ml IL-2. CTL activity was tested on the 14th day, and CTL clone was expanded using the same method as described above (Uchida N et al., Clin Cancer Res 2004 Dec. 15, 10(24): 8577-86; Suda T et al., Cancer Sci 2006 May, 97(5): 411-9; Watanabe T et al., Cancer Sci 2005 August, 96(8): 498-506).
as §1

[3] = tested on: COS7 transfected with both the full length TTK gene and the HLA-A*0201 molecule; conditions: results of WO2008/102557 duplicated as FIG. 4; cited from earlier work
[4] = tested on: COS7 cells transfected with both the full length of TTK and HLA-A*0201 gene; experiment: Specific CTL activity against target cells expressing TTK and HLA-A*0201; assay type: cell-based, African green monkey
Description: (§2) The cDNA encoding an open reading frame of target genes or HLA-A*0201 was amplified by PCR. The PCR-amplified products were cloned into a vector. The plasmids were transfected into COS7, which is the target genes and HLA-A*0201-negative cell line, using lipofectamine 2000 (Invitrogen) according to the manufacturer's recommended procedures. After 2 days from transfection, the transfected cells were harvested with versene (Invitrogen) and used as the target cells (5×10^4 cells/well) for CTL activity assay.
(§3) The established CTL lines and clones raised against each peptide were examined for the ability to recognize target cells that express TTK and HLA-A*0201 molecule. […] COS7 cells transfected with either full length of TTK genes or HLA-A*0201 were prepared as controls. […] And then this peptide-HLA complex was recognized by the CTLs.

[5] = tested on: COS7 cells transfected with either full length of TTK genes or HLA-A*0201; experiment: Specific CTL activity against control COS7 transfectants; assay type: cell-based, African green monkey; conditions: CTL line and clone; COS7 expressing either TTK or HLA-A*0201 only
Description: as §2, §3

H1650 cells = experiment: Specific CTL activity against HLA-A2 positive, TTK positive tumor cell line; assay type: cell-based, human; conditions: FIG. 3c
Description: (§4) T2 (HLA-A2), human B-lymphoblastoid cell line and COST, African green monkey kidney cell line, were purchased from ATCC. HLA-A2 positive and TTK positive tumor cell line, H1650, was purchased from ATCC. HLA-A2 negative and TTK positive cell lines, PC-3 and TE-1, were purchased from JCRB Cell bank and RIKEN Cell Bank, respectively.
as §3

PC3 cells = experiment: Specific CTL activity against HLA-A2 negative, TTK positive control tumor cell line PC-3; assay type: cell-based, human
Description: as §4, §3

TE1 cells = experiment: Specific CTL activity against HLA-A2 negative, TTK positive control tumor cell line TE-1; assay type: cell-based, human
Description: as §4, §3

| Substance | IFN-gamma production of peptide-induced CTLs (peptide specific CTL activity) (peptide-pulsed T2 cells [1]) | IFN-gamma production of CTL lines (peptide-pulsed T2 cells [2]) | Specific CTL activity of CTL clones against COS7 transfected with both TTK and HLA-A*0201 [3] | also measured |
| --- | --- | --- | --- | --- |
| TTK-A02-9-462: 9-mer HLA-A*0201 binding candidate peptide derived from TTK, SEQ ID NO: 1 (YMSCFRTPV) | potent IFN-gamm production | potent IFN-gamma production | specific CTL activity |  |
| TTK-A02-9-146: 9-mer HLA-A*0201 binding candidate peptide derived from TTK, SEQ ID NO: 19 (HISFAQFEL) | potent IFN-gamm production |  |  |  |
| TTK-A02-10-542: 10-mer HLA-A*0201 binding candidate peptide derived from TTK, SEQ ID NO: 34 (VLNEKKQIYA) | potent IFN-gamm production |  |  |  |
| TTK-A02-10-462: 10-mer HLA-A*0201 binding candidate peptide derived from TTK, SEQ ID NO: 22 (YMSCFRTPVV) | potent IFN-gamm production | potent IFN-gamma production | specific CTL activity |  |
| TTK-A02-9-719: 9-mer HLA-A*0201 binding candidate peptide derived from TTK, SEQ ID NO: 6 (SLGCILYYM) | potent IFN-gamm production | potent IFN-gamma production | specific CTL activity |  |
| TTK-A02-9-564: 9-mer HLA-A*0201 binding candidate peptide derived from TTK, SEQ ID NO: 20 (TLDSYRNEI) | potent IFN-gamm production |  |  |  |
| TTK-A02-9-630: 9-mer HLA-A*0201 binding candidate peptide derived from TTK, SEQ ID NO: 2 (NMLEAVHTI) | potent IFN-gamm production | potent IFN-gamma production |  |  |
| TTK-A02-9-547: 9-mer peptide derived from TTK, SEQ ID NO: 5, disclosed in Applicants' WO2008/102557 (KQIYAIKYV) |  |  | specific CTL activity |  |
| TTK-A02-9-142: 9-mer HLA-A*0201 binding candidate peptide derived from TTK, SEQ ID NO: 15 (FAFVHISFA) | potent IFN-gamm production | potent IFN-gamma production |  |  |
| TTK-A02-10-661: 10-mer HLA-A*0201 binding candidate peptide derived from TTK, SEQ ID NO: 35 (KLIDFGIANQ) | potent IFN-gamm production |  |  |  |
| TTK-A02-9-593: nonapeptide derived from TTK, HLA-A2 restricted epitope peptide, SEQ ID NO: 3 (ITDQYIYMV) | potent IFN-gamm production | potent IFN-gamma production |  | IFN-gamma production of CTL clone (peptide-pulsed T2 cells [2]; CTL clone established by limiting dilution from the CTL line, target cells pulsed with peptide): Potent IFN-gamma productions; CTL activity of CTL clone against COS7 cells expressing both TTK and HLA-A*0201 ([4]; CTL clone stimulated with the peptide as effector cells (FIG. 3b)): potent CTL activity; CTL activity of CTL line against COS7 cells expressing both TTK and HLA-A*0201 ([4]; CTL line stimulated with the peptide as effector cells (FIG. 3a)): potent CTL activity; Increase in the IFN-gamma production compared to the peptides of WO2008/102557 ([4]; compared to TTK-A2-9-462, TTK-A02-9-547, TTK-A2-9-719 and TTK-A2-10-462 (FIG. 3 vs FIG. 4)): one or two orders of magnitude; Specific CTL activity against the controls [5]: no significant specific CTL activity was detected; Specific CTL activity of CTL clone against tumor cell line endogenously expressing both TTK and HLA-A*0201 (H1650 cells): specific CTL activity; Specific CTL activity of CTL clone against control tumor cells (PC3 cells): no significant specific CTL activity was detected; Specific CTL activity of CTL clone against control tumor cells (TE1 cells): no significant specific CTL activity was detected |
